The values that follow come from ChEMBL document CHEMBL1201862, “PubChem BioAssay data set” (2004).

Test systems include RXF 393; SNB-78; NCI-H460; MOLT-4; HCC 2998; SW-620; DLD-1; K562; LOX IMVI; SR; OVCAR-5; OVCAR-3; A549; TK-10; HOP-62; NCI/ADR-RES; RPMI-8226; DMS-114; UO-31.
What all share (assay): inhibition of tumour cell growth, NCI panel, 48 h

Each structure is given as a SMILES string.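 Results reflect a 48-hour exposure of cells in 96-well plates to compound at five concentrations. GI50 = concentration required for 50% inhibition of growth.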 The source made the active and inactive calls. Cut-off read from the data, not from the text of the source: active = GI50 up to about 1.1 µM and inactive = higher. Some results are limits rather than exact numbers.

`Nc1nc(SCCC/C=C/B(O)O)nc2c1ncn2C1OC(CO)C(O)C1O` (configuration not stated): the GI50 with RXF 393, with SNB-78, with NCI-H460, in the experiment on MOLT-4, in the experiment with HCC 2998 and with SW-620 was > 243 µM (inactive) throughout. For the same compound, the GI50 in the experiment on DLD-1, with K562, with LOX IMVI, in the experiment on SR, in the experiment on OVCAR-5 and in the experiment on OVCAR-3 was > 243 µM (inactive) in each case. The GI50 in the experiment with A549, in the experiment with TK-10 and with HOP-62 was > 243 µM (inactive) each time.

For `C/C(=N\Nc1ccccc1)C(CN(C)C)C(c1ccccc1)c1c(O)c2ccccc2oc1=O` (configuration not stated), the GI50 in the experiment on RXF 393 is > 100 µM (inactive); in the experiment on NCI-H460, > 100 µM (inactive); in the experiment with MOLT-4 it was 42.1 µM (inactive); with HCC 2998, > 100 µM (inactive); with NCI/ADR-RES it was > 100 µM (inactive); in the experiment with SW-620, > 100 µM (inactive). In addition, the GI50 in the experiment with K562 is > 100 µM (inactive); in the experiment on RPMI-8226 it was > 66.7 µM (inactive); in the experiment on LOX IMVI, > 100 µM (inactive); in the experiment with SR, 85.9 µM (inactive); in the experiment with DMS-114, > 100 µM (inactive); with OVCAR-5, > 100 µM (inactive). Further, the GI50 in the experiment with OVCAR-3, in the experiment with A549, in the experiment with TK-10, in the experiment on UO-31 and in the experiment on HOP-62 was > 100 µM (inactive) each time.

Regarding `CCO/N=[N+](\[O-])N(CC)CC`, the GI50 in the experiment on RXF 393, with SNB-78, in the experiment on NCI-H460, in the experiment on MOLT-4, in the experiment with HCC 2998 and in the experiment with SW-620 was > 100 µM (inactive) each time. Besides, the GI50 with K562, with LOX IMVI, in the experiment on SR, in the experiment with OVCAR-5, in the experiment on OVCAR-3 and in the experiment on A549 was > 100 µM (inactive) each time. Further, the GI50 in the experiment with TK-10, in the experiment on UO-31 and in the experiment on HOP-62 was > 100 µM (inactive) in each case.

On to `Brc1ccc2c(-c3csc(-c4c[nH]c5cc(Br)ccc45)n3)c[nH]c2c1`, for which the GI50 with RXF 393 was 23.4 µM (inactive); in the experiment with NCI-H460 it was 18.9 µM (inactive); with MOLT-4, 12.1 µM (inactive); in the experiment with HCC 2998, 43.8 µM (inactive); in the experiment with NCI/ADR-RES, 16 µM (inactive); with SW-620, 16 µM (inactive). For the same compound, the GI50 in the experiment on K562 was 4.75 µM (inactive); with RPMI-8226 it was 17.6 µM (inactive); in the experiment with LOX IMVI, 20.9 µM (inactive); with SR it was 5.61 µM (inactive); in the experiment with OVCAR-5, 26.6 µM (inactive); with OVCAR-3, 52.1 µM (inactive). Besides, the GI50 was 19.5 µM (inactive) in the experiment with A549, 30.8 µM (inactive) in the experiment on TK-10, 55.3 µM (inactive) in the experiment on UO-31 and 37.2 µM (inactive) with HOP-62.

As to `O=C1CCCN1C(=O)CS(=O)(=O)c1ccccc1`, the GI50 in the experiment with RXF 393, with NCI-H460, in the experiment on MOLT-4, with HCC 2998, with NCI/ADR-RES and in the experiment on SW-620 was > 100 µM (inactive) in each case. The GI50 with K562, in the experiment on RPMI-8226, in the experiment on LOX IMVI, in the experiment with SR, in the experiment with OVCAR-5 and in the experiment on OVCAR-3 was > 100 µM (inactive) throughout. Besides, the GI50 with A549, in the experiment on TK-10, in the experiment with UO-31 and with HOP-62 was > 100 µM (inactive) each time.

Turning to `O=C(/C=C/NC(=O)OCc1ccccc1)OCc1ccccc1`, the GI50 in the experiment on RXF 393, in the experiment on NCI-H460, in the experiment with MOLT-4, in the experiment on HCC 2998, in the experiment on NCI/ADR-RES and with SW-620 was > 100 µM (inactive) each time. Further, the GI50 with K562, in the experiment on RPMI-8226, with LOX IMVI, with SR, in the experiment with OVCAR-5 and with OVCAR-3 was > 100 µM (inactive) throughout. The GI50 in the experiment on A549 is > 100 µM (inactive); in the experiment on TK-10, 86.7 µM (inactive); in the experiment with UO-31, 32.5 µM (inactive); in the experiment with HOP-62, > 100 µM (inactive).

As for `COC(=O)/C(=N/NC(C)(C)C)C(C(=O)OC)C(=O)C(=O)Nc1nc2ccc([N+](=O)[O-])cc2s1` (configuration not stated), the GI50 in the experiment on SNB-78, in the experiment on NCI-H460, with MOLT-4, with HCC 2998, in the experiment with SW-620 and in the experiment with K562 was > 100 µM (inactive) in each case. The GI50 with RPMI-8226, in the experiment with LOX IMVI, in the experiment with SR, in the experiment with DMS-114, in the experiment with OVCAR-5 and in the experiment with OVCAR-3 was > 100 µM (inactive) in each case. The GI50 with A549, in the experiment on TK-10, with UO-31 and in the experiment on HOP-62 was > 100 µM (inactive) throughout.

For `COc1cc(C2c3cc4c(cc3OC(NCc3ccccc3)C2C)OCO4)cc(OC)c1OC` (configuration not stated), the GI50 was 0.206 µM (active) with RXF 393; 0.394 µM (active) with NCI-H460; 0.653 µM (active) with MOLT-4; 0.687 µM (active) in the experiment with HCC 2998; 0.258 µM (active) with NCI/ADR-RES; 0.331 µM (active) in the experiment with SW-620. The GI50 with K562 was 0.305 µM (active); in the experiment with RPMI-8226 it was 0.381 µM (active); with LOX IMVI, 0.551 µM (active); in the experiment on SR, 0.241 µM (active); with OVCAR-5, 1.09 µM (active); in the experiment on OVCAR-3, 0.298 µM (active). The GI50 in the experiment with A549 was 0.631 µM (active); with TK-10 it was 20.2 µM (inactive); in the experiment on UO-31, 0.504 µM (active); in the experiment on HOP-62, 0.553 µM (active).

As for `NCCCn1c2ccccc2c2c3c(c4c(c21)CCC(O)CC4)C(=O)NC3=O` (configuration not stated), the GI50 was 2.15 µM (inactive) in the experiment on RXF 393; 2.06 µM (inactive) with NCI-H460; 1.53 µM (inactive) with MOLT-4; 0.845 µM (active) in the experiment on HCC 2998; 13 µM (inactive) with NCI/ADR-RES; 1.04 µM (active) in the experiment with SW-620. In addition, the GI50 with K562 was 0.69 µM (active); in the experiment on RPMI-8226 it was 1.98 µM (inactive); in the experiment on LOX IMVI it was 1.01 µM (active); in the experiment with SR it was 1.69 µM (inactive); in the experiment on OVCAR-5, 2.24 µM (inactive); with OVCAR-3 it was 2.55 µM (inactive). The GI50 was 4.86 µM (inactive) with A549, 3.57 µM (inactive) in the experiment on TK-10, 6.27 µM (inactive) with UO-31 and 2.5 µM (inactive) in the experiment on HOP-62.

For the compound `Cn1nc2ccc3nccc(NCCNCCCl)c3c2n1`, the GI50 with RXF 393, in the experiment on NCI-H460, in the experiment on MOLT-4, in the experiment with HCC 2998, with SW-620 and in the experiment on DLD-1 was > 100 µM (inactive) throughout. Also, the GI50 in the experiment on K562, in the experiment with RPMI-8226, with LOX IMVI, in the experiment with SR, in the experiment on DMS-114 and in the experiment on OVCAR-5 was > 100 µM (inactive) in each case. Further, the GI50 in the experiment on OVCAR-3, in the experiment with A549, in the experiment on TK-10, in the experiment with UO-31 and in the experiment with HOP-62 was > 100 µM (inactive) in each case.

As to `c1ccc2cc(-c3cc(-c4cc(-c5ccc6ccccc6c5)on4)no3)ccc2c1`, the GI50 with RXF 393 is > 100 µM (inactive); with NCI-H460, > 100 µM (inactive); in the experiment on MOLT-4 it was 88.9 µM (inactive); with HCC 2998, 99.1 µM (inactive); in the experiment on NCI/ADR-RES, > 100 µM (inactive); in the experiment on SW-620, > 100 µM (inactive). Also, the GI50 in the experiment with K562 was > 100 µM (inactive); in the experiment with RPMI-8226, > 100 µM (inactive); with LOX IMVI, > 100 µM (inactive); with SR it was 55.7 µM (inactive); in the experiment with OVCAR-5, > 100 µM (inactive); in the experiment with OVCAR-3, > 100 µM (inactive). The GI50 with A549 is > 100 µM (inactive); in the experiment on TK-10, > 100 µM (inactive); with UO-31, 96.8 µM (inactive); in the experiment on HOP-62, > 100 µM (inactive).

In the case of `Cc1nccn1S(=O)(=O)c1ccc(Cl)cc1`, the GI50 was 52 µM (inactive) in the experiment on RXF 393; 41.9 µM (inactive) in the experiment on NCI-H460; 56.9 µM (inactive) in the experiment on MOLT-4; 29.2 µM (inactive) in the experiment on HCC 2998; 43.6 µM (inactive) in the experiment with NCI/ADR-RES; 65.2 µM (inactive) with SW-620. Moreover, the GI50 in the experiment on K562 was 37.8 µM (inactive); in the experiment with RPMI-8226, 48.6 µM (inactive); in the experiment with LOX IMVI, 41.5 µM (inactive); in the experiment with SR, 38 µM (inactive); in the experiment on OVCAR-5 it was 64.6 µM (inactive); with OVCAR-3 it was 54.8 µM (inactive). Also, the GI50 is > 100 µM (inactive) with A549, 72.8 µM (inactive) in the experiment with TK-10, 58.3 µM (inactive) in the experiment with UO-31 and 58.2 µM (inactive) in the experiment on HOP-62.
